Data set [1] relates to K562 cell line. Briefly: Cytotoxicity, MTS method. The note with it: Homo sapiens, K562, 72 hours of incubation. Type of data set: cell-based. Here is the method: The anti-tumor activity of the compounds of the present invention was evaluated as the effect on the proliferation and survival of tumor cells by counting the number of living cells in presence or absence of the compounds ("cell count method"), and as the effect on the viability and metabolic activity of the cells, by using particular substrates that are converted by cellular enzymes into coloured or luminescent products, proportionally with metabolic activity and state of the cell, such as the MTS tetrazolium compound ("MTS method") or luciferin ("ATP-based method") respectively.
Cells were seeded at 3 to 5 x 10^4 cells/well density depending on cell lines and maintained at 37°C in 5% CO2. After 24 hours cells were treated with ascending concentrations of the investigational compounds and the reference (5-fluoro-Uracyl) in a range from 0 to 100 µM. […] After 72 h of incubation with compounds, the cells were detached with trypsin and re-suspended in 1 ml of complete medium; the cell number was evaluated using a Z2 Coulter Counter ("cell count method") (Attallah and Johnson, A simple highly sensitive methods for the determination of cell viability using an electronic particle analyzer, Coulter counter J. Immunol. Methods. 1981, 41, 155; Leonardi et al., Activated kinase screening identifies the IKBKE oncogene as a positive regulator of autophagy. Autophagy, 2019, 15, 312). […]

The test system of data set [2] is Triple negative breast cancer (cell line MDA-MB-231). The data set is described as follows: Subcutaneous xenograft mice model. The format is in vivo, nude FOXN1nu/nu mice. The note with it: MDA-MB-231 xenograft, 45 mg/Kg I.P. every Monday, Wednesday and Friday for 5 weeks. Here is the method:
(§1) Human cancer cell lines were inoculated subcutaneously in nude FOXN1^nu/nu mice (Envigo spa) in both flanks.
(§2) The number of cells inoculated varied between different cell lines: • A549 and A549 Red-FLuc: 5 x 10^6 in medium:matrigel (1:1 v/v) • MDAMB231: 2.8 x 10^6 in medium:matrigel (1:2 v/v)
(§3) When tumors reach the appropriate volume for each cell line, the compounds were administered I.P. every 48 hours, 3 times a week every Monday, Wednesday and Friday for 5 weeks, at a dose selected from the PK study, as follows: • vehicle: 10% DMSO, 5% TWEEN 80 and WFI (85%) • treatment group dose: 45 mg/kg • control group: vehicle only • dose concentration: 12 mg/ml in 10% DMSO, 5% TWEEN 80 and WFI (85%) • volume: 5 ml/kg
(§4) Tumor volume was evaluated twice a week with caliper and calculated with the standard formula (Length ^∗ Height ^∗ Height)/2. Mice were weighed twice a week. Tumor growth is calculated with respect to the first day of treatment (day 0) as ratio between the volume at each day of measurement and day 0.

For data set [3], the system named is Non-small cell lung cancer engineered with a luciferase reporter (cell line A549 Red-FLuc). Briefly: Subcutaneous xenograft mice model. The format is in vivo, nude FOXN1nu/nu mice. The note with it: 45 mg/Kg I.P. every Monday, Wednesday and Friday for 5 weeks. As to the method: as §1, §2, §3, §4
For data set [4], the system named is Non-small cell lung cancer (cell line A549). The data set is described as follows: Subcutaneous xenograft mice model. The note with it: 45 mg/Kg I.P. every Monday, Wednesday and Friday for 5 weeks. Type of data set: in vivo, nude FOXN1nu/nu mice. Here is the method: as §1, §2, §3, §4
Data set [5] can be described thus: Tissue distribution after single I.P. administration. The format is in vivo, male Swiss Albino Mice. Here is the method:
The pharmacokinetic study was performed in male Swiss albino mice from Hylasco Biotechnology Pvt. Ltd. (A Charles River technology Licensee). The tissue distribution study was performed in male Swiss albino mice and in male FOXN1^nu/nu nude mice (Envigo spa). The efficacy study was performed in male FOXN1^nu/nu nude mice.
Single intraperitoneal administration studies were done as follows: • 1. Compound 5 • dose 1: 45 mg/kg • dose concentration: […] in 10% DMSO, 5% TWEEN 80 and WFI (85%) • volume: 5 ml/kg • blood withdrawal time points: 0.25, 0.5, 1, 2, 4, 6, 8, 24 hours post administration • brain, liver and lungs collected at 4, 8 and 24 hours • 2. Compound 5 • dose 2: 10 mg/kg • dose concentration: 2 mg/ml in 10% DMSO, 10% Solutol and WFI (90%). • volume: 5 ml/kg • blood withdrawal time points: 0.25, 0.5, 1, 2, 4, 6, 8, 24 hours post administration
Selected organs were collected at 4, 8 and 24 hours for drug distribution studies: mice were anesthetized and intra-cardiac whole body perfusion was performed using chilled saline. Separated tissues were immediately washed, dried, weighed and frozen at -80±10°C until homogenization. The levels of compound in the tissues and in plasma were quantified by LC-MS/MS, using as instrument Q-TRAP 500, with a column Phenomenex, KINETEX 5µ EVO C18 50 mm X 4.5 mm (Phenomenex). The mobile phase employed was composed as follows: aqueous reservoir, 10 mM Ammonium Acetate with 0.1% Formic acid in MilliQ water; organic reservoir, Acetonitrile:Methanol (50:50, v/v); flow rate 1 ml/min; injection volume 10µl; rinsing solution, Acetonitrile:Methanol:Water (20:60:20, v/v).
Distribution to tissues is expressed as ratio between the compound level in tissues (ng compounds/ mg tissue) divided by the compound levels in blood (ng/ml), considering 1 ml of blood equal to […].

Where [6] appears, read: 4 hours after single administration I.P. 45 mg/Kg.
Where [7] appears, read: 8 hours after single administration I.P. 45 mg/Kg.
[8] abbreviates: 24 hours after single administration I.P. 45 mg/Kg.

`CCCCc1cn(-c2ccc(-c3nnc(-c4ccccc4C(F)(F)F)o3)cc2)nn1` [Compound 5]: half-maximal inhibition in data set [1] (IC50) required 20.3 µM. Moreover, the tumor growth entry in data set [2], in data set [3] and in data set [4] was “counteract tumor growth” each time. For the same compound, the Liver to plasma in data set [5] (setting [6]) was 11.2; in data set [5] (setting [7]), 9.2; in data set [5] (setting [8]), 9.2. Also, the Plasma in data set [5] (setting [6]) stood at 2171 ng/mL; in data set [5] (setting [7]) it was 775 ng/mL; in data set [5] (setting [8]), 273 ng/mL. Moreover, in data set [5] (mouse, brain, ip, 4 hours after single administration I.P. 45 mg/Kg, read-out: Brain to plasma), the Kp at 4 h stood at 2.4. Further, the Kp at 8 h in data set [5] (mouse, brain, ip, 8 hours after single administration I.P. 45 mg/Kg, read-out: Brain to plasma) was 2.1. Besides, the Kp at 24 h in data set [5] (mouse, brain, ip, 24 hours after single administration I.P. 45 mg/Kg, read-out: Brain to plasma) worked out at 1.75.

The values are drawn from EP4050002A1, “ANTI-PROLIFERATIVE AGENTS” (First Health Pharmaceuticals B.V., priority 2021, dated 2022).
